Reference: paper PMC12198407, “Preclinical and first-in-human of purinostat mesylate, a novel selective HDAC I/IIb inhibitor, in relapsed/refractory multiple myeloma and lymphoma” (Signal Transduction and Targeted Therapy, 2025)

Assays:
HDAC5 = HDAC5 (Homo sapiens, UniProt Q9UQL6); assay: HDAC enzyme activity in vitro; format: biochemical
[1] = Metabolite profiling in plasma, bile, urine, feces; format: in vivo, SD rats; conditions: for share of plasma AUC0-96h: [14C] 3 mg/100 µCi/kg i.v.; for amount in bile, % of administered dose: 0 to 72 hours; for amount in feces, % of administered dose / amount in urine, % of administered dose: 0 to 168 hours
Method: Following a single intravenous administration of [14C] Purinostat Mesylate at a dose of 3 mg/100 µCi/kg in male and female rats, a total of 14 metabolites were identified, in addition to the parent compound. These were designated as M382, M396, M474, M475, M490, M516, M517, M532, M546, M548, M558, M666, M708a, and M708b. Among these, M382 is an acetylated product of the parent drug after N-dealkylation, M396 is a carboxylic acid derivative of M382, M474 is a reduction product of the parent drug, M475 is a hydroxylated product derived from the amino conversion of M474, M490 is a mono-oxidation product of M474, M516 is an acetylated product of M474, M517 is a hydroxylated product derived from the amino conversion of M516, M532 is an acetylated product of the parent drug, M546 is a methylated product of M532, M548 is a dioxidation product of M516, M558 is a glucuronic acid conjugate of M382, M666 is a glucuronic acid conjugate of the parent drug, M708a is a mono-oxidation glucuronic acid conjugate of M516, and M708b is a glucuronic acid conjugate of M532.

CYP1A2 = assay: CYP induction, cryopreserved human liver cells; format: in vitro ADME; conditions: 0.0500, 0.500, 5.00 µM; three donors
r/r DLBCL PDX = r/r DLBCL PDX mouse model; format: in vivo, mice; conditions: PM 10 mg/kg; Pola-BR per Table S9
Method: All animal studies were performed in accordance with the guidelines approved by the Institutional Animal Care and Use Committee of Sichuan University, Chengdu, China. Six- to seven-week-old female NOD-SCID mice were purchased from Beijing Vital River Laboratory Animal Technology Co., Ltd. (China). Mice received subcutaneous inoculation with 0.5 × 10^7 MM1S or RPMI-8226 cells, to establish xenograft models. Heterotopic PDX models were generated as previously described.[54] When tumors reached 150–250 mm^3, mice were treated with various compounds. PM and panobinostat were administered intravenously three times a week at 5 mg/kg in combination therapy. […] Tumor volume (tumor volume (mm^3) = π/6 × length × width^2) and body weights were measured every two days. At the end, tumor tissues were weighed, and antitumor activity was evaluated by the tumor inhibition rate = (1 − tumor weight of treatment group/tumor weight of vehicle group) × 100%.

MM1S xenograft = MM1S xenograft mouse model; format: in vivo, NOD-SCID mice; conditions: for median survival time: satellite group, death = tumor 1500 mm³
CYP3A4 = molecular target: T1, CYP3A4 (Homo sapiens, UniProt P08684); assay: CYP inhibition, human liver microsomes; format: in vitro ADME
T1 construct: human liver microsomal cytochrome P450 isoenzymes; from tissue; host or cells: human liver microsomes

Raji-luc = assay: Luciferase substrate viability assay; format: cell-based, human
CYP2C8 = molecular target: T2, CYP2C8 (Homo sapiens, UniProt P10632); assay: CYP inhibition, human liver microsomes; format: in vitro ADME
T2 construct: human liver microsomal cytochrome P450 isoenzymes; from tissue; host or cells: human liver microsomes

Ramos-luc = assay: Luciferase substrate viability assay; format: cell-based, human

T1 sequence (P08684 whole entry): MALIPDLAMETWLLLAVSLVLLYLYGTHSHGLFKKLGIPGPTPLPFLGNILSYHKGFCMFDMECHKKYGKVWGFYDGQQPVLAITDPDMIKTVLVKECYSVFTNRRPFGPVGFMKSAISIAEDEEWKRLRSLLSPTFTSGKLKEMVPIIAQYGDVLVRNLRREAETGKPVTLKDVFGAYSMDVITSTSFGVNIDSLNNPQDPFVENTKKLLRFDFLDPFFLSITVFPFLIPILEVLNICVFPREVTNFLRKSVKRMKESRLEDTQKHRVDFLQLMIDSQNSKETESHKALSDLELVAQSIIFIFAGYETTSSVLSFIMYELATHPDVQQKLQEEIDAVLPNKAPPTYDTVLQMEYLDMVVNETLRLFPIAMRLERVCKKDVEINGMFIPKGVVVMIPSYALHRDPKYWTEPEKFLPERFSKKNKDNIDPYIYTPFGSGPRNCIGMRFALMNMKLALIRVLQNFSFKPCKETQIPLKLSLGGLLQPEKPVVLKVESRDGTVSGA
T2 sequence (P10632 whole entry): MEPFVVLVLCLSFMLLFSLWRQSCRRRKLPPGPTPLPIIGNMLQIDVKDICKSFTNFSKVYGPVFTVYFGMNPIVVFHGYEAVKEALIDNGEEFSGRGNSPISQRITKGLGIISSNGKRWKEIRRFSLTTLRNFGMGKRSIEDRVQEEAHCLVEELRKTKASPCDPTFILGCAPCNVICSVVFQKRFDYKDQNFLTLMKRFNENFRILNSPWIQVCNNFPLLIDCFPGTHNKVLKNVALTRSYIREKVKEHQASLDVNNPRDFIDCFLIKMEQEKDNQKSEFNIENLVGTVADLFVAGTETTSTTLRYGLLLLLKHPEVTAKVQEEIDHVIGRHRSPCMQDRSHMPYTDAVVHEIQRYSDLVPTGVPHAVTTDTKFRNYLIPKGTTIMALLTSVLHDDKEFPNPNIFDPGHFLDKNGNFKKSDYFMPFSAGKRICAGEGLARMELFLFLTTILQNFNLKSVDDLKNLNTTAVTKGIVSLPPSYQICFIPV
Sequence of HDAC5 (Q9UQL6 whole entry): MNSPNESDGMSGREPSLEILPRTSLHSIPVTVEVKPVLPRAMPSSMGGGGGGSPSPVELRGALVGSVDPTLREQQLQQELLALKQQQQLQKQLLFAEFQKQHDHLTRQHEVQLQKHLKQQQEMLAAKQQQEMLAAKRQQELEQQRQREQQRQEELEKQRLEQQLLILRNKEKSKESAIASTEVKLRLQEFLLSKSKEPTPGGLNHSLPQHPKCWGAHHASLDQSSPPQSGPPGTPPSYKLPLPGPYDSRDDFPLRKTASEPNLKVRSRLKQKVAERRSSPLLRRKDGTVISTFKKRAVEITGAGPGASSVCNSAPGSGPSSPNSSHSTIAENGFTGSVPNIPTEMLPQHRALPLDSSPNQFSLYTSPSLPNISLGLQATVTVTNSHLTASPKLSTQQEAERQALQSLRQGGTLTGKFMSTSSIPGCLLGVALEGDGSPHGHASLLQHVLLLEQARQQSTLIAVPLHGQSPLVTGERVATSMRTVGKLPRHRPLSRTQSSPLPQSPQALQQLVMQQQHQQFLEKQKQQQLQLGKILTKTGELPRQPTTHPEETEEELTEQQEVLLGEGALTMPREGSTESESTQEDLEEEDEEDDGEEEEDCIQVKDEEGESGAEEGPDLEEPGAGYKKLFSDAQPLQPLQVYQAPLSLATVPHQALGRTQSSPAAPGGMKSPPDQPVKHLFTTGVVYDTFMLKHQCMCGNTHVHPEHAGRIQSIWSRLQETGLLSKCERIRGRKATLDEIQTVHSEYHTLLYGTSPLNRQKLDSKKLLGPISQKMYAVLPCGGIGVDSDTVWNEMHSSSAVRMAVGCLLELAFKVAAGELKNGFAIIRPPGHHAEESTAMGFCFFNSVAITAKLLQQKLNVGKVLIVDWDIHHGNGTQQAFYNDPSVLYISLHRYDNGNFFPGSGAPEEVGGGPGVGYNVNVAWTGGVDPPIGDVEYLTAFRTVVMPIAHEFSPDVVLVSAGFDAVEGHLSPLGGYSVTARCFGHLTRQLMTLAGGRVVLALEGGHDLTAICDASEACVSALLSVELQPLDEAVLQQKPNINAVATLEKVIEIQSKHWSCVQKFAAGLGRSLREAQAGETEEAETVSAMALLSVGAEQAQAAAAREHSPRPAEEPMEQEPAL

Compound: CN(Cc1nc2c(N3CCOCC3)nc(-c3ccc(N)cc3)nc2n1C)c1ncc(C(=O)NO)cn1.CS(=O)(=O)O [PM, 2-(((2-(4-Aminophenyl)-9-methyl-6-(4-morpholinyl)-9H-purine-8-yl)methyl)methylamino)-N-hydroxy-5-pyrimidine-carboxamide Mesylate]
- IC50 (HDAC5): 426 nM
- share of plasma AUC0-96h ([1]; female rats): 11.15%
- amount in bile, % of administered dose ([1]; females): 2.45%
- amount in feces, % of administered dose ([1]; females): 0.84%
- amount in urine, % of administered dose ([1]; females): 0.35%
- share of plasma AUC0-96h ([1]; male rats): 8.79%
- amount in bile, % of administered dose ([1]; males): 2.47%
- amount in feces, % of administered dose ([1]; males): 0.94%
- amount in urine, % of administered dose ([1]; males): 0.66%
- induction of CYP1A2 (CYP1A2): did not act as an inducer
- tumor inhibition rate (r/r DLBCL PDX): 77.14%
- relative tumor growth rate T/C (MM1S xenograft; 2.5 mg/kg): 49.9%
- tumor inhibition rate (MM1S xenograft; 2.5 mg/kg i.v. three times a week): 55.67%
- relative tumor growth rate T/C (MM1S xenograft; 5 mg/kg): 32.0%
- tumor inhibition rate (MM1S xenograft; 5 mg/kg i.v. three times a week): 64.39%
- relative tumor growth rate T/C (MM1S xenograft; 10 mg/kg): 21.8%
- tumor inhibition rate (MM1S xenograft; 10 mg/kg i.v. three times a week): 71.76%
- relative tumor growth rate T/C (MM1S xenograft; 20 mg/kg): 18.3%
- tumor inhibition rate (MM1S xenograft; 20 mg/kg i.v. three times a week): 76.44%
- median survival time (MM1S xenograft; 5 mg/kg): 29.0 days
- median survival time (MM1S xenograft; 10 mg/kg): 34.5 days
- IC50 (CYP3A4; midazolam as the substrate): > 10000 nM
- IC50 (CYP3A4; testosterone as the substrate): 1130 nM
- time until effect detectable (Raji-luc): 36 h
- IC50 (CYP2C8): > 10000 nM
- time until effect detectable (Ramos-luc): 24 h
